In PMC6751662, “Pharmacological and functional similarities of the human neuropeptide Y system in C. elegans challenges phylogenetic views on the FLP/NPR system” (Cell Communication and Signaling : CCS, 2019):

How the values were obtained:
NPR-4b = target: T1, NPR-4b (Caenorhabditis elegans, UniProt A0A078BTK0); experiment: cAMP reporter gene assay, Gs (no forskolin), NPR-4b; format: cell-based, C. elegans; conditions: no forskolin, 4 h, transiently transfected HEK293, CRE-luciferase reporter, mean of >=3 independent experiments
T1 sequence (A0A078BTK0 1-376): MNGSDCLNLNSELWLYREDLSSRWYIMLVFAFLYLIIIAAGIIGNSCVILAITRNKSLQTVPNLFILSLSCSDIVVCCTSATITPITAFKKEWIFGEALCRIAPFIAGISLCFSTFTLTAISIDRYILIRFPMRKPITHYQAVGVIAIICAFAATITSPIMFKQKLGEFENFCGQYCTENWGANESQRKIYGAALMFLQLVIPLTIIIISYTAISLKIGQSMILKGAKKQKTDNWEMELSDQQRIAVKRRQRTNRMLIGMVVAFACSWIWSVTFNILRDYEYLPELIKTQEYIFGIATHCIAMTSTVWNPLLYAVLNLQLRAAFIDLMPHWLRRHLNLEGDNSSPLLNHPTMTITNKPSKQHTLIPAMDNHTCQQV
Protocol: (§1) Activation of Gs and Gi/o was assessed with a cAMP reporter gene assay. HEK293 cells grown to 70–80% confluency in 6-well plates were transiently co-transfected with vectors encoding the receptor and the cAMP reporter gene plasmid pGL4.29 [luc2P/CRE/Hygro] (Promega; 4 μg total, 1:1 ratio) using Metafectene Pro (3 μl/μg DNA; Biontex) following the manufacturer’s instructions. 16 h post transfection, the cells were seeded into white 384-well plates at a density of 20,000 cells/well. On the next day, the medium was removed and the cells were stimulated with 20 μl of peptide solution (or forskolin as positive control) in serum-free DMEM for 4 h. For measuring Gi/o activity, the peptide solutions additionally contained 1 μM forskolin to elevate cellular cAMP levels. After incubation, the luciferase substrate OneGlo in lysis buffer (Promega) was added and the luminescence was measured in a microplate reader Tecan Spark (Tecan). Data were analyzed with GraphPad Prism 5.03 and are shown as fold of basal or fold of forskolin in case of Gαi/o activity.
(§2) For in vitro activation, data is presented as mean ± SEM of at least three independent experiments conducted in technical triplicate. […] For the C. elegans NPRs, we considered the strongest response elicited by any of the peptides downstream of a particular receptor as the receptor’s maximal signal. This may or may not be the biological maximum that can be reached by the ‘true’ endogenous agonist. For the human receptors, the response to the established endogenous agonist reflected the maximal signal.

Y1R = target: T2, Y1R (Homo sapiens, UniProt P25929); experiment: cAMP reporter gene assay, Gi/o, Y1R; format: cell-based; conditions: for cAMP assay (Gi/o), Y1R: 4 h, lower = higher Gi/o activity, transfected HEK293, CRE-luciferase, mean of >=3 independent experiments; for Gi (Gs) [x-fold of forskolin], Y1R, mean: inhibition of cAMP production induced by 1 µM forskolin (set to 1.00), transiently transfected HEK293 cells, mean of at least three independent experiments
T2 construct: expressed in transfected cells; host or cells: HEK293, transient
T2 sequence (P25929 1-384): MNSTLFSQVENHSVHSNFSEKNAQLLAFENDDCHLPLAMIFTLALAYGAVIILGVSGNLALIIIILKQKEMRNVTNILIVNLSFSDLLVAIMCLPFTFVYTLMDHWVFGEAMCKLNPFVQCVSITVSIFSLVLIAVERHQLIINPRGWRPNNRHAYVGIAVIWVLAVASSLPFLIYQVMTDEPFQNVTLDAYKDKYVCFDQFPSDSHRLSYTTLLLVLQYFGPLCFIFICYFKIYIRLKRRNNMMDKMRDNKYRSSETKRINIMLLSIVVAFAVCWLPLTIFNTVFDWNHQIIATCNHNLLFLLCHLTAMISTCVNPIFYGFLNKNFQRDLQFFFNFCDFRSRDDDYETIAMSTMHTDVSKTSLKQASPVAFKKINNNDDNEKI
Protocol: as §1, §2

Y2R = target: T3, Y2R (Homo sapiens, UniProt P49146); experiment: cAMP reporter gene assay, Gi/o, Y2R; format: cell-based; conditions: for cAMP assay (Gi/o), Y2R: 4 h, lower = higher Gi/o activity, transfected HEK293, CRE-luciferase, mean of >=3 independent experiments; for Gi (Gs) [x-fold of forskolin], Y2R, mean: inhibition of cAMP production induced by 1 µM forskolin (set to 1.00), transiently transfected HEK293 cells, mean of at least three independent experiments
T3 construct: expressed in transfected cells; host or cells: HEK293, transient
T3 sequence (P49146 1-381): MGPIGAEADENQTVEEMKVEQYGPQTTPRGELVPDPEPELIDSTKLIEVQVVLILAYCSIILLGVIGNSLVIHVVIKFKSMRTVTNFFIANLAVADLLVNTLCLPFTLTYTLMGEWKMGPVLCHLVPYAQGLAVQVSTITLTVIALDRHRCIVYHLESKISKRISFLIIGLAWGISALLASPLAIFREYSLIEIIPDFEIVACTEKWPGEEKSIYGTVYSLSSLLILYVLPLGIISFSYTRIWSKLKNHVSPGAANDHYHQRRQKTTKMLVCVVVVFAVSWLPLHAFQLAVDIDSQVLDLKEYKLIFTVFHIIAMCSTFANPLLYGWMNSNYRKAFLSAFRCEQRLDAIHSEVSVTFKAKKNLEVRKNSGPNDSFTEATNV
Protocol: as §1, §2

Y4R = target: T4, Y4R (Homo sapiens, UniProt P50391); experiment: cAMP reporter gene assay, Gi/o, Y4R; format: cell-based; conditions: for cAMP assay (Gi/o), Y4R: 4 h, lower = higher Gi/o activity, transfected HEK293, CRE-luciferase, mean of >=3 independent experiments; for Gi (Gs) [x-fold of forskolin], Y4R, mean: inhibition of cAMP production induced by 1 µM forskolin (set to 1.00), transiently transfected HEK293 cells, mean of at least three independent experiments
T4 construct: expressed in transfected cells; host or cells: HEK293, transient
T4 sequence (P50391 whole entry): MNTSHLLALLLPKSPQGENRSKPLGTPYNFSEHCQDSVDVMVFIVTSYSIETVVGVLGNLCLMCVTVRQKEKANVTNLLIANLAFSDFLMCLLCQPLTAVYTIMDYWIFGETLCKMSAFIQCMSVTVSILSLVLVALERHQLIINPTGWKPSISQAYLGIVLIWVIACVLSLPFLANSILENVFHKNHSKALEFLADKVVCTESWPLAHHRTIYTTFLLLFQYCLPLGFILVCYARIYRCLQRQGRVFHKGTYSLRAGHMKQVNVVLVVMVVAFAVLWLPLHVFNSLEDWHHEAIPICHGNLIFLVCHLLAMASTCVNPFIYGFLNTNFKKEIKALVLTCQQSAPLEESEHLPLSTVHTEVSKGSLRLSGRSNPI
Protocol: as §1, §2

Y5R = target: T5, Y5R (Homo sapiens, UniProt Q15761); experiment: cAMP reporter gene assay, Gi/o, Y5R; format: cell-based; conditions: for cAMP assay (Gi/o), Y5R: 4 h, lower = higher Gi/o activity, transfected HEK293, CRE-luciferase, mean of >=3 independent experiments; for Gi (Gs) [x-fold of forskolin], Y5R, mean: inhibition of cAMP production induced by 1 µM forskolin (set to 1.00), transiently transfected HEK293 cells, mean of at least three independent experiments
T5 construct: expressed in transfected cells; host or cells: HEK293, transient
T5 sequence (Q15761 1-445): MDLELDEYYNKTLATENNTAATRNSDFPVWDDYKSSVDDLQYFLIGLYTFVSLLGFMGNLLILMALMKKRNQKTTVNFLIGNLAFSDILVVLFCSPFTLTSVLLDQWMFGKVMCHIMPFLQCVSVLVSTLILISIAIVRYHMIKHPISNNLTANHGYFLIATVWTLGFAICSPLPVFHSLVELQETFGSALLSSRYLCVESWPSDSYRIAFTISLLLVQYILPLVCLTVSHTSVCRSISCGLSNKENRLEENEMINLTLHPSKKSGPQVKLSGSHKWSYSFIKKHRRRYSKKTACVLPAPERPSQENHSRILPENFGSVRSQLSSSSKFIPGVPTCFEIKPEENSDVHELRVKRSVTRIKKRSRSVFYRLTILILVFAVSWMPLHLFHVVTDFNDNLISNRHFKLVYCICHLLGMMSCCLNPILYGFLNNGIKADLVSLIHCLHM
Protocol: as §1, §2

[1] = 0.1 µM peptide + 1 µM forskolin (set to 1.00)
[2] = 10 µM peptide + 1 µM forskolin (set to 1.00)

APKPKFIRF-NH2 [FLP-5-1, C. elegans FMRFamide-like peptide, C-terminally amidated, synthesized by SPPS]
cAMP assay Gs, NPR-4b (NPR-4b; 0.1 µM peptide): 0.89 x-fold of basal | cAMP assay Gs, NPR-4b (NPR-4b; 10 µM peptide): 0.92 x-fold of basal

APLEGFEDMSGFLRTIDGIQKPRF-NH2 [FLP-33, NPY-like C. elegans FLP with C-terminal RxRF/Ya signature]
cAMP assay (Gi/o), Y1R (Y1R; [1]): 0.94 x-fold of forskolin | cAMP assay (Gi/o), Y1R (Y1R; [2]): 0.73 x-fold of forskolin | cAMP assay (Gi/o), Y2R (Y2R; [1]): 0.89 x-fold of forskolin | cAMP assay (Gi/o), Y2R (Y2R; [2]): 0.76 x-fold of forskolin | cAMP assay (Gi/o), Y4R (Y4R; [1]): 0.95 x-fold of forskolin | cAMP assay (Gi/o), Y4R (Y4R; [2]): 0.90 x-fold of forskolin | cAMP assay (Gi/o), Y5R (Y5R; [1]): 0.94 x-fold of forskolin | cAMP assay (Gi/o), Y5R (Y5R; [2]): 0.99 x-fold of forskolin

EASAFGDIIGELKGKGLGGRMRF-NH2 [FLP-27, NPY-like C. elegans FLP with C-terminal RxRF/Ya signature]
cAMP assay (Gi/o), Y1R (Y1R; [1]): 0.88 x-fold of forskolin | cAMP assay (Gi/o), Y1R (Y1R; [2]): 0.23 x-fold of forskolin | cAMP assay (Gi/o), Y2R (Y2R; [1]): 0.80 x-fold of forskolin | cAMP assay (Gi/o), Y2R (Y2R; [2]): 0.17 x-fold of forskolin | cAMP assay (Gi/o), Y4R (Y4R; [1]): 1.01 x-fold of forskolin | cAMP assay (Gi/o), Y4R (Y4R; [2]): 0.75 x-fold of forskolin | cAMP assay (Gi/o), Y5R (Y5R; [1]): 1.07 x-fold of forskolin | cAMP assay (Gi/o), Y5R (Y5R; [2]): 0.96 x-fold of forskolin

GLGPRPLAF-NH2 [[R8A]FLP-21, R8A control peptide of FLP-21, penultimate arginine exchanged for an alanine]
Gi (Gs) [x-fold of forskolin], Y1R, mean (Y1R; 0.1 µM peptide): 0.85 x-fold of forskolin | Gi (Gs) [x-fold of forskolin], Y1R, mean (Y1R; 10 µM peptide): 0.76 x-fold of forskolin | Gi (Gs) [x-fold of forskolin], Y2R, mean (Y2R; 0.1 µM peptide): 0.88 x-fold of forskolin | Gi (Gs) [x-fold of forskolin], Y2R, mean (Y2R; 10 µM peptide): 0.81 x-fold of forskolin | Gi (Gs) [x-fold of forskolin], Y4R, mean (Y4R; 0.1 µM peptide): 0.81 x-fold of forskolin | Gi (Gs) [x-fold of forskolin], Y4R, mean (Y4R; 10 µM peptide): 0.85 x-fold of forskolin | Gi (Gs) [x-fold of forskolin], Y5R, mean (Y5R; 0.1 µM peptide): 0.84 x-fold of forskolin | Gi (Gs) [x-fold of forskolin], Y5R, mean (Y5R; 10 µM peptide): 0.87 x-fold of forskolin

RGPSGPLAF-NH2 [[R8A]FLP-15-2]
Gi (Gs) [x-fold of forskolin], Y1R, mean (Y1R; 0.1 µM peptide): 0.72 x-fold of forskolin | Gi (Gs) [x-fold of forskolin], Y1R, mean (Y1R; 10 µM peptide): 0.71 x-fold of forskolin | Gi (Gs) [x-fold of forskolin], Y2R, mean (Y2R; 0.1 µM peptide): 0.86 x-fold of forskolin | Gi (Gs) [x-fold of forskolin], Y2R, mean (Y2R; 10 µM peptide): 1.05 x-fold of forskolin | Gi (Gs) [x-fold of forskolin], Y4R, mean (Y4R; 0.1 µM peptide): 0.79 x-fold of forskolin | Gi (Gs) [x-fold of forskolin], Y4R, mean (Y4R; 10 µM peptide): 0.94 x-fold of forskolin | Gi (Gs) [x-fold of forskolin], Y5R, mean (Y5R; 0.1 µM peptide): 0.89 x-fold of forskolin | Gi (Gs) [x-fold of forskolin], Y5R, mean (Y5R; 10 µM peptide): 0.91 x-fold of forskolin
